Our source for the mutagenic call values is PubChem BioAssay AID1259407 (Chemical Carcinogenesis Research Information System (CCRIS), 2018).

Active and inactive are the calls of the source. The rule behind the calls is not given here.

For this data set, the system named is CCRIS mutagenicity, Ames/micronucleus/aberration tests. In words: CCRIS mutagenicity studies.
Where [1] appears, read: Test System: AMES SALMONELLA TYPHIMURIUM, Strain/Indicator: TA98, Metabolic Activation: NONE.
The mark [2] stands for this setting: Test System: AMES SALMONELLA TYPHIMURIUM, Strain/Indicator: TA98, Metabolic Activation: RAT, LIVER, S-9, AROCLOR 1254.
The mark [3] stands for this setting: Test System: AMES SALMONELLA TYPHIMURIUM, Strain/Indicator: TA104, Metabolic Activation: NONE, Method: STANDARD PLATE.
The mark [4] stands for this setting: Test System: AMES SALMONELLA TYPHIMURIUM, Strain/Indicator: TA97, Metabolic Activation: NONE, Method: STANDARD PLATE.
[5] abbreviates: Test System: AMES SALMONELLA TYPHIMURIUM, Strain/Indicator: TA98, Metabolic Activation: NONE, Method: STANDARD PLATE.
Where [6] appears, read: Test System: AMES SALMONELLA TYPHIMURIUM, Strain/Indicator: TA100, Metabolic Activation: NONE, Method: STANDARD PLATE.

In the case of `CC(C)(Oc1ccc(C2CC2(Cl)Cl)cc1)C(=O)O` (stereo unspecified), the mutagenic call under setting [1] is “inactive; negative”; the mutagenic call under setting [2] was “inactive; negative”; the mutagenic call (Test System: AMES SALMONELLA TYPHIMURIUM, Strain/Indicator: TA102, Metabolic Activation: NONE) is “inactive; negative”; the mutagenic call (Test System: AMES SALMONELLA TYPHIMURIUM, Strain/Indicator: TA102, Metabolic Activation: RAT, LIVER, S-9, AROCLOR 1254) was “inactive; negative”; the mutagenic call (Test System: AMES SALMONELLA TYPHIMURIUM, Strain/Indicator: TA104, Metabolic Activation: NONE) is “inactive; negative”; the mutagenic call (Test System: AMES SALMONELLA TYPHIMURIUM, Strain/Indicator: TA104, Metabolic Activation: RAT, LIVER, S-9, AROCLOR 1254) was “inactive; negative”. The mutagenic call runs as follows: (Test System: UDS RAT HEPATOCYTES, Strain/Indicator: BROMODEOXYURIDINE INCORP, Metabolic Activation: NONE, Method: FLOW CYTOMETRIC ANALYSIS) “inactive; negative”; (Test System: UDS RAT HEPATOCYTES, Strain/Indicator: THY INCORP, Metabolic Activation: NONE, Method: AUTORADIOGRAPHY) “inactive; negative”; (Test System: UDS RAT HEPATOCYTES, Strain/Indicator: THY INCORP, Metabolic Activation: NONE, Method: LIQUID SCINTILLATION COUNTING) “inactive; negative”.

Take `CN(C)S(=O)(=O)N(SC(F)(Cl)Cl)c1ccccc1`: the mutagenic call (Test System: AMES SALMONELLA TYPHIMURIUM, Strain/Indicator: TA102, Metabolic Activation: NONE, Method: STANDARD PLATE) is “inactive; negative”; the mutagenic call (Test System: AMES SALMONELLA TYPHIMURIUM, Strain/Indicator: TA102, Metabolic Activation: RAT, LIVER, S-9, PHENOBARBITAL, Method: STANDARD PLATE) was “inactive; negative”; the mutagenic call under setting [3] was “inactive; negative”; the mutagenic call (Test System: AMES SALMONELLA TYPHIMURIUM, Strain/Indicator: TA104, Metabolic Activation: RAT, LIVER, S-9, PHENOBARBITAL, Method: STANDARD PLATE) is “inactive; negative”; the mutagenic call (Test System: E. COLI, Strain/Indicator: WP2HCR, Metabolic Activation: NONE, Method: STANDARD PLATE) is “active; positive”; the mutagenic call (Test System: E. COLI, Strain/Indicator: WP2HCR, Metabolic Activation: S-9 MIX, Method: STANDARD PLATE) is “inactive; negative”.

Regarding `O=[N+]([O-])c1ccc2ccc3cc4c(c5ccc1c2c35)C=C[C@H](O)[C@H]4O`, the mutagenic call is, setting by setting: (Test System: AMES SALMONELLA TYPHIMURIUM, Strain/Indicator: TA98(1,8-DNP6), Metabolic Activation: NONE) “active; positive”; (Test System: AMES SALMONELLA TYPHIMURIUM, Strain/Indicator: TA98(1,8-DNP6), Metabolic Activation: RAT, LIVER, S-9, AROCLOR 1254) “active; positive”; (Test System: AMES SALMONELLA TYPHIMURIUM, Strain/Indicator: TA98(NR), Metabolic Activation: NONE) “active; positive”; (Test System: AMES SALMONELLA TYPHIMURIUM, Strain/Indicator: TA98(NR), Metabolic Activation: RAT, LIVER, S-9, AROCLOR 1254) “active; positive”; under setting [1], “active; positive”; under setting [2], “active; positive”. For the same compound, the mutagenic call reads like this: (Test System: CHINESE HAMSTER OVARY, Strain/Indicator: CHO-K1-BH4 (HGPRT), Metabolic Activation: NONE) “active; positive”; (Test System: CHINESE HAMSTER OVARY, Strain/Indicator: CHO-K1-BH4 (HGPRT), Metabolic Activation: RAT, LIVER, S-9, 3-METHYLCHOLANTHRENE) “active; positive”.

Consider `O=C1C=Cc2c(ccc3cc4ccccc4cc23)C1=O`, for which the mutagenic call runs as follows: (Test System: AMES SALMONELLA TYPHIMURIUM, Strain/Indicator: TA97A, Metabolic Activation: NONE, Method: PREINCUBATION) “inactive; negative”; (Test System: AMES SALMONELLA TYPHIMURIUM, Strain/Indicator: TA98, Metabolic Activation: NONE, Method: PREINCUBATION) “inactive; negative”; (Test System: AMES SALMONELLA TYPHIMURIUM, Strain/Indicator: TA100, Metabolic Activation: NONE, Method: PREINCUBATION) “inactive; negative”; (Test System: AMES SALMONELLA TYPHIMURIUM, Strain/Indicator: TA102, Metabolic Activation: NONE, Method: PREINCUBATION) “inactive; negative”; (Test System: AMES SALMONELLA TYPHIMURIUM, Strain/Indicator: TA104, Metabolic Activation: NONE, Method: PREINCUBATION) “inactive; negative”.

Regarding `CC1(C)[C@H](C=C(Cl)Cl)[C@H]1C(=O)OCc1cccc(Oc2ccccc2)c1`, the mutagenic call was “inactive; negative” under setting [4]; “inactive; negative” (Test System: AMES SALMONELLA TYPHIMURIUM, Strain/Indicator: TA97, Metabolic Activation: RAT, LIVER, S-9, PHENOBARBITONE, Method: STANDARD PLATE); “inactive; negative” under setting [5]; “inactive; negative” (Test System: AMES SALMONELLA TYPHIMURIUM, Strain/Indicator: TA98, Metabolic Activation: RAT, LIVER, S-9, PHENOBARBITONE, Method: STANDARD PLATE); “inactive; negative” under setting [6]; “inactive; negative” (Test System: AMES SALMONELLA TYPHIMURIUM, Strain/Indicator: TA100, Metabolic Activation: RAT, LIVER, S-9, PHENOBARBITONE, Method: STANDARD PLATE). Further, the mutagenic call is, setting by setting: under setting [3], “inactive; negative”; (Test System: AMES SALMONELLA TYPHIMURIUM, Strain/Indicator: TA104, Metabolic Activation: RAT, LIVER, S-9, PHENOBARBITONE, Method: STANDARD PLATE) “inactive; negative”.

`O=C/C(=C(\Cl)C(=O)O)C(Cl)Cl`: the mutagenic call under setting [4] is “inactive; negative”; the mutagenic call (Test System: AMES SALMONELLA TYPHIMURIUM, Strain/Indicator: TA97, Metabolic Activation: RAT, LIVER, S-9, PHENOBARBITAL, Method: STANDARD PLATE) is “inactive; negative”; the mutagenic call under setting [5] is “inactive; negative”; the mutagenic call (Test System: AMES SALMONELLA TYPHIMURIUM, Strain/Indicator: TA98, Metabolic Activation: RAT, LIVER, S-9, PHENOBARBITAL, Method: STANDARD PLATE) was “inactive; negative”; the mutagenic call under setting [6] is “active; positive”; the mutagenic call (Test System: AMES SALMONELLA TYPHIMURIUM, Strain/Indicator: TA100, Metabolic Activation: RAT, LIVER, S-9, PHENOBARBITAL, Method: STANDARD PLATE) is “inactive; negative”.

For the compound `O=C(CBr)c1oc([N+](=O)[O-])c(-c2ccccc2)c1-c1ccccc1`, the mutagenic call is “active; positive” (Test System: AMES SALMONELLA TYPHIMURIUM, Strain/Indicator: TA98(NR), Metabolic Activation: NONE, Method: STANDARD PLATE); “active; positive” under setting [5]; “active; positive” (Test System: AMES SALMONELLA TYPHIMURIUM, Strain/Indicator: TA100(NR), Metabolic Activation: NONE, Method: STANDARD PLATE); “active; positive” under setting [6].
